# Assay results from PubChem BioAssay (NCI).
#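 Each compound was tested at five concentrations against cells in 96-well plates for 48 hours. GI50 = concentration required for 50% inhibition of growth. At the TGI there is no net growth.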
# Tests used:
# Assay in all cases: NCI anticancer screen, dose series, 48 h
# [1] = system: OVCAR-5 ovarian
# [2] = system: 786-0 renal
# [3] = system: UACC-257 melanoma
# [4] = system: ACHN renal
# [5] = system: HOP-62 NSCLC
# [6] = system: HCT-116 colon
# [7] = system: PC-3 prostate
# [8] = system: A549 NSCLC
# [9] = system: HCT-15 colon
# [10] = system: NCI-H226 lung
# [11] = system: OVCAR-3 ovarian
# [12] = system: SNB-75 CNS
# [13] = system: MCF7 breast
# [14] = system: SN12C renal
# [15] = system: SW-620 colon
# [16] = system: NCI-H460 lung
# [17] = system: NCI/ADR-RES ovarian
# [18] = system: HL-60(TB) leukemia
# [19] = system: SF-268 CNS
# [20] = system: RXF 393 renal
# [21] = system: SK-MEL-5 melanoma
# [22] = system: MDA-MB-231 breast
# [23] = system: BT-549 breast
# [24] = system: M14 melanoma
# [25] = system: K-562 leukemia
# [26] = system: SF-539 CNS
# [27] = system: TK-10 renal
# [28] = system: OVCAR-4 ovarian
# [29] = system: U251 CNS
# [30] = system: HOP-92 NSCLC
# [31] = system: OVCAR-8 ovarian
# [32] = system: MDA-MB-435
# [33] = system: MOLT-4 leukemia
# [34] = system: DU-145 prostate
# [35] = system: SR leukemia
# [36] = system: SNB-19 CNS
# [37] = system: KM12 colon
# [38] = system: SK-MEL-28 melanoma
# [39] = system: MALME-3M melanoma
# [40] = system: HT29 colon
# [41] = system: NCI-H23 lung
# [42] = system: SF-295 CNS
# [43] = system: UACC-62 melanoma
# [44] = system: SK-OV-3 ovarian
# [45] = system: EKVX NSCLC
# [46] = system: T-47D breast
# [47] = system: HS 578T breast
# [48] = system: CAKI-1 renal
# [49] = system: COLO 205 colon
# [50] = system: UO-31 renal
# [51] = system: NCI-H522 lung
# [52] = system: RPMI-8226 leukemia
# [53] = system: LOX IMVI melanoma
# [54] = system: CCRF-CEM leukemia
# [55] = system: SK-MEL-2 melanoma
# [56] = system: A498 renal
smiles,measurement,setting,value
Cc1cc(NC(=S)SCc2ccc(F)cc2)c([N+](=O)[O-])cc1C,TGI,[1],54.7 µM
same,TGI,[2],> 100 µM
same,TGI,[3],53.6 µM
same,TGI,[4],> 100 µM
same,TGI,[5],68.1 µM
same,TGI,[6],> 100 µM
same,TGI,[7],> 100 µM
same,TGI,[8],> 100 µM
same,TGI,[9],46.4 µM
same,TGI,[10],38.7 µM
same,TGI,[11],54.6 µM
same,TGI,[12],> 100 µM
same,TGI,[13],> 100 µM
same,TGI,[14],48.4 µM
same,TGI,[15],> 100 µM
same,TGI,[16],> 100 µM
same,TGI,[17],62.2 µM
same,TGI,[18],45.4 µM
same,TGI,[19],> 100 µM
same,TGI,[20],82.9 µM
same,TGI,[21],26 µM
same,TGI,[22],34.6 µM
same,TGI,[23],59.1 µM
same,TGI,[24],> 100 µM
same,TGI,[25],> 100 µM
same,TGI,[26],53.2 µM
same,TGI,[27],65.4 µM
same,TGI,[28],> 100 µM
same,TGI,[29],57.5 µM
same,TGI,[30],68 µM
same,TGI,[31],38.6 µM
same,TGI,[32],73.2 µM
same,TGI,[33],16.9 µM
same,TGI,[34],> 100 µM
same,TGI,[35],43.9 µM
same,TGI,[36],77.1 µM
same,TGI,[37],44.6 µM
same,TGI,[38],> 100 µM
same,TGI,[39],77.7 µM
same,TGI,[40],34.6 µM
same,TGI,[41],99.4 µM
same,TGI,[42],> 100 µM
same,TGI,[43],31.3 µM
same,TGI,[44],> 100 µM
same,TGI,[45],91.3 µM
same,TGI,[46],> 100 µM
same,TGI,[47],46.6 µM
same,TGI,[48],> 100 µM
same,TGI,[49],37.2 µM
Cc1ccc(N=C/C=C(\Nc2ccc(C)cc2)c2ccc(Cl)cc2)cc1,GI50,[1],24.4 µM
same,TGI,[1],94.9 µM
same,GI50,[2],11.1 µM
same,TGI,[2],28.7 µM
same,GI50,[3],15.8 µM
same,TGI,[3],38.8 µM
same,GI50,[4],14.5 µM
same,TGI,[4],> 100 µM
same,GI50,[5],14.9 µM
same,TGI,[5],35.9 µM
same,GI50,[6],5.54 µM
same,TGI,[6],46.8 µM
same,GI50,[7],26.8 µM
same,TGI,[7],> 100 µM
same,GI50,[8],10.5 µM
same,TGI,[8],61.1 µM
same,GI50,[9],5.77 µM
same,TGI,[9],> 100 µM
same,GI50,[11],8.06 µM
same,TGI,[11],77.9 µM
same,GI50,[13],5.77 µM
same,TGI,[13],69.6 µM
same,GI50,[50],21.4 µM
same,TGI,[50],85.8 µM
same,GI50,[14],11.7 µM
same,TGI,[14],33.3 µM
same,GI50,[15],6.44 µM
same,TGI,[15],52 µM
same,GI50,[16],6.38 µM
same,TGI,[16],60.6 µM
same,GI50,[17],5.1 µM
same,TGI,[17],22.1 µM
same,GI50,[19],13.4 µM
same,TGI,[19],40.2 µM
same,GI50,[20],17.6 µM
same,TGI,[20],59.2 µM
same,GI50,[21],6 µM
same,TGI,[21],20.7 µM
same,GI50,[22],11.2 µM
same,TGI,[22],46.6 µM
same,GI50,[23],11.2 µM
same,TGI,[23],29.2 µM
same,GI50,[24],4.96 µM
same,TGI,[24],22.5 µM
same,GI50,[25],4.75 µM
same,TGI,[25],> 100 µM
same,GI50,[26],6.1 µM
same,TGI,[26],26.6 µM
same,GI50,[27],12.3 µM
same,TGI,[27],42.2 µM
same,GI50,[28],47.4 µM
same,TGI,[28],> 100 µM
same,GI50,[29],7.39 µM
same,TGI,[29],50.1 µM
same,GI50,[30],14 µM
same,TGI,[30],33.1 µM
same,GI50,[31],14.6 µM
same,TGI,[31],53.6 µM
same,GI50,[32],2.82 µM
same,TGI,[32],12 µM
same,GI50,[33],4.25 µM
same,TGI,[33],> 100 µM
same,GI50,[34],15.6 µM
same,TGI,[34],38.4 µM
same,GI50,[35],2.32 µM
same,TGI,[35],> 100 µM
same,GI50,[51],21.9 µM
same,TGI,[51],70 µM
same,GI50,[36],17.3 µM
same,TGI,[36],70.6 µM
same,GI50,[37],5.36 µM
same,TGI,[37],46.7 µM
same,GI50,[38],4.99 µM
same,TGI,[38],27.1 µM
same,GI50,[39],9.27 µM
same,TGI,[39],48.4 µM
same,GI50,[40],4 µM
same,TGI,[40],> 100 µM
same,GI50,[41],11 µM
same,TGI,[41],32.3 µM
same,GI50,[42],5.55 µM
same,TGI,[42],21.9 µM
same,GI50,[43],7.31 µM
same,TGI,[43],39.8 µM
same,GI50,[44],21 µM
same,TGI,[44],> 100 µM
same,GI50,[52],3.53 µM
same,TGI,[52],> 100 µM
same,GI50,[45],14 µM
same,TGI,[45],36.2 µM
same,GI50,[53],5.58 µM
same,TGI,[53],> 100 µM
same,GI50,[46],> 100 µM
same,TGI,[46],> 100 µM
same,GI50,[47],15.3 µM
same,TGI,[47],41.7 µM
same,GI50,[54],1.95 µM
same,TGI,[54],33.5 µM
same,GI50,[48],8.52 µM
same,TGI,[48],40.4 µM
same,GI50,[49],7.11 µM
same,TGI,[49],> 100 µM
same,GI50,[55],29.9 µM
same,TGI,[55],> 100 µM
same,GI50,[56],16.8 µM
same,TGI,[56],34.1 µM
